Cn1cc[n+](CCCC[n+]2ccn(C)c2)c1.F[P-](F)(F)(F)(F)F.F[P-](F)(F)(F)(F)F
Settings	solubility (mole fraction)
in 2-butanone, 283.15 K	0.00838
in 2-butanone, 288.15 K	0.00936
in 2-butanone, 294.15 K	0.0114
in 2-butanone, 299.15 K	0.014
in 2-butanone, 304.15 K	0.0178
in 2-butanone, 309.15 K	0.0235
in 2-butanone, 315.15 K	0.0349
in 2-butanone, 320.15 K	0.0496
in 2-butanone, 325.15 K	0.0728
in acetophenone, 299.65 K	0.00127
in acetophenone, 303.65 K	0.00198
in acetophenone, 307.35 K	0.00285
in acetophenone, 313.15 K	0.00472
in acetophenone, 318.15 K	0.00677
in acetophenone, 323.15 K	0.00919
in acetophenone, 328.15 K	0.0117
in acetophenone, 332.15 K	0.0137
in acetylacetone, 283.15 K	0.00252
in acetylacetone, 288.15 K	0.0026
in acetylacetone, 293.15 K	0.00295
in acetylacetone, 297.45 K	0.00352
in acetylacetone, 302.65 K	0.00473
in acetylacetone, 309.15 K	0.00768
in acetylacetone, 314.15 K	0.0121
in acetylacetone, 320.15 K	0.0227
in acetylacetone, 325.15 K	0.0409
in acetylacetone, 330.15 K	0.0784
in cyclohexanone, 283.15 K	0.000563
in cyclohexanone, 288.15 K	0.0009
in cyclohexanone, 293.15 K	0.00138
in cyclohexanone, 298.35 K	0.00206
in cyclohexanone, 302.15 K	0.00271
in cyclohexanone, 308.65 K	0.0041
in cyclohexanone, 313.15 K	0.00529
in cyclohexanone, 318.25 K	0.00688
in cyclohexanone, 323.15 K	0.00857
in cyclohexanone, 328.15 K	0.0105
in cyclohexanone, 333.15 K	0.0124
in water, 283.15 K	9.5e-05
in water, 288.45 K	0.000124
in water, 293.15 K	0.000156
in water, 298.15 K	0.000203
in water, 303.65 K	0.000274
in water, 308.15 K	0.000348
in water, 313.15 K	0.000456
in water, 318.35 K	0.000608
in water, 323.15 K	0.00079
in water, 328.15 K	0.00105
in water, 333.15 K	0.00138
